A compilation of properties of binary mixtures (doi:10.1007/s10953-016-0518-2)

Test: xn = mol fraction of the nth substance listed
Details: 101 kPa

CC[n+]1ccn(C)c1.F[B-](F)(F)F + OCCO
viscosity [mPa·s]
Details | x1 = 0.0993 | x1 = 0.2001 | x1 = 0.3023 | x1 = 0.4011 | x1 = 0.5003 | x1 = 0.598 | x1 = 0.7003 | x1 = 0.7997 | x1 = 0.8997 | x1 = 1
303.15 K | 10.5 | 9.63 | 9.5 | – | 10.6 | 11.9 | 14 | 16.9 | 21.4 | 28
313.15 K | 7.54 | 6.96 | 6.97 | – | 7.91 | 8.98 | 10.5 | 12.7 | 15.9 | 20.4
323.15 K | 5.57 | 5.22 | 5.3 | 5.63 | 6.21 | 7.05 | 8.29 | 9.9 | 12.3 | 15.3
333.15 K | – | – | 4.2 | 4.51 | 5.02 | 5.7 | 6.7 | 8.07 | 9.7 | 12.1

OCCO + CC[n+]1ccn(C)c1.F[B-](F)(F)F
x2 = 0
Details | viscosity [mPa·s]
303.15 K | 13.8
313.15 K | 9.62
323.15 K | 6.92
